# Experimental data reported in PubChem BioAssay AID1259338 (Broad Institute, 2017).
# The source made the active and inactive calls.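 How the source made its calls: active means compounds lowering the signal with a fitted AC50 at or below a set concentration limit; inconclusive means flat curve with 30 to 70% inhibition, or a poor fit; inactive means the rest.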
# Target: Caspase recruitment domain-containing protein 9 (Homo sapiens) + E3 ubiquitin-protein ligase TRIM62 (Homo sapiens) (UniProt Q9H257+Q9BVG3)
# Sequence (Q9BVG3 whole entry, looked up, the tested form may be a part): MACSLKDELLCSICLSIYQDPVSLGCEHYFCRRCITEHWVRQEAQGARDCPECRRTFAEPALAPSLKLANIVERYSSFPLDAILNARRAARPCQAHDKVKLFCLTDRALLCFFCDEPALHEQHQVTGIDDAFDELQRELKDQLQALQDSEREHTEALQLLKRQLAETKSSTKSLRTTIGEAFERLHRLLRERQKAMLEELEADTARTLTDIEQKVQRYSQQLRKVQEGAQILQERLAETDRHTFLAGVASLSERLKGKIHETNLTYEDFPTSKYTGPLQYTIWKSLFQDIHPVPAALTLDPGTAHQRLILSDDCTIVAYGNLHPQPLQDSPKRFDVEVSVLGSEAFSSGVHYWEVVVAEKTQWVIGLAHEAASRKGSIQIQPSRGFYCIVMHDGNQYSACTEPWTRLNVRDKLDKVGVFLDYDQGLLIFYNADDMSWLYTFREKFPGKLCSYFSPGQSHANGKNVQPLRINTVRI
# Sequence (Q9H257 whole entry, looked up, the tested form may be a part): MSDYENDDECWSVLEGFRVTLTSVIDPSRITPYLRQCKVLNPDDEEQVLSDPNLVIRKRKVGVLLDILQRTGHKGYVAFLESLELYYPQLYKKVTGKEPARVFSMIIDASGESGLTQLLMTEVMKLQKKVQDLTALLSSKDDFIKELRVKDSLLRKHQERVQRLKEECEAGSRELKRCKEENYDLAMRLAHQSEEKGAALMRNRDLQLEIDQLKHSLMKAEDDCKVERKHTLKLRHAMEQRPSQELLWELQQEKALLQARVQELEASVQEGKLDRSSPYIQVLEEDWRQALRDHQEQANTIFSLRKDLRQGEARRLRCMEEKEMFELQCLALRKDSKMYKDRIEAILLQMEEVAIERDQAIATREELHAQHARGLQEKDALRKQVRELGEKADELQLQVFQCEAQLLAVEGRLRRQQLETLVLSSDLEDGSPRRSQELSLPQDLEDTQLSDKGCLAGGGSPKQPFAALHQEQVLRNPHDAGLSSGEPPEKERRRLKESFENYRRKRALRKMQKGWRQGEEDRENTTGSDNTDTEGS
# Assay: disruptors of CARD9-TRIM62 binding, dose response, cell lysate, HEK293FT lysates, Luminex bead readout (AID 1259338); on activity change, negative = inhibition: reference of the scale not given here
# Details: Luminex bead PPI, MFI
row,Compound,AC50
1,CC1=CCC(C(=O)O)C(C(=O)NC2CCCCC2)C1 (centres undefined),83.4 µM
2,COCC(=O)N1CCCC2(CCN(CCN3CCCC3)C2=O)C1 (centres undefined),> 160 µM (inactive)
3,C[C@H](CO)N1C[C@H](C)[C@@H](CN(C)CC2CCCCC2)OCCCC[C@H](C)Oc2ccc(NS(C)(=O)=O)cc2C1=O,28.9 µM
4,C[C@H](CO)N1C[C@H](C)[C@@H](CN(C)CC2CCCCC2)OCCCC[C@H](C)Oc2ccc(NS(=O)(=O)c3ccc(F)cc3)cc2C1=O,73 µM
5,Nc1ccc(-c2cccc(CN3CCCC3)c2)cc1,> 160 µM (inactive)
6,O=C(O)C1Oc2cc3ccccc3cc2O1,68.9 µM
7,O=C(NCCCN1CCOCC1)c1cc(-c2ccco2)nc2ccccc12,41.8 µM
8,O=C(Nc1nc(-c2ccco2)c(-c2ccco2)s1)C1CCC1,54.7 µM
9,CCOC(=O)C1CCN(C(=O)CN(Cc2ccccc2)S(C)(=O)=O)CC1,> 76 µM (inactive)
10,Cc1ccc(-c2nnc(-c3nc(Nc4nc5ccccc5s4)c4ccccc4n3)o2)cc1,42.1 µM
11,NC(=O)c1ccc(CN2C(=O)C3(CCNCC3)Nc3ccccc32)cc1,> 160 µM (inactive)
12,O=S(=O)(c1ccc2nc(-c3ccco3)c(-c3ccco3)nc2c1)N1CCOCC1,> 160 µM (inactive)
13,CCN1CCN(C(=O)c2cc(-c3ccco3)nc3ccccc23)CC1,61.4 µM
14,O=C(CN1CCOC1=O)N1CCC2(CCC(=O)N(CCCn3ccnc3)C2)CC1,> 160 µM (inactive)
15,c1ccc(-c2nc(-c3ccco3)n3ccccc23)cc1,> 76 µM (inactive)
16,O=C(NCC1CCCO1)c1cc(-c2ccco2)nc2ccccc12 (centres undefined),> 160 µM (inactive)
17,Cc1ccccc1C(=O)Nc1cnc(N2CCC(C(N)=O)(N3CCCCC3)CC2)c(C(=O)O)c1,7.55 µM
18,O=C(NCc1ccco1)c1c2c(nc3ccccc13)CCC2,> 160 µM (inactive)
19,Cc1c(C(=O)OCC2CCCO2)[nH]c2c1C(=O)CC(c1ccco1)C2 (centres undefined),> 160 µM (inactive)
20,Cc1ncnc(N2CCC(c3nccn3Cc3cccnc3)CC2)c1C,> 160 µM (inactive)
21,OCc1ccc(O)c2ncccc12,23.5 µM

# Same assay, conditions: Luminex bead PPI, MFI, at 80 µM (top of the series)
row,Compound,"activity change, negative = inhibition"
1,CC(=O)Nc1ccc(Nc2nc(-c3nnc(-c4cccc(C)c4)o3)nc3ccccc23)cc1,inactive
2,O=C(O)c1cc(-c2ccc(-c3ccc(F)cc3)o2)nc2ccccc12,inactive
3,Cc1cc(C(=O)Nc2nc3c(s2)CCc2ccccc2-3)no1,inactive
4,O=C(NCc1ccco1)c1ccc(S(=O)(=O)N2CCOCC2)cc1,inactive
5,C[C@H](CO)N1C[C@H](C)[C@@H](CN(C)C(=O)C2CCCCC2)OCCCC[C@H](C)Oc2ccc(NS(=O)(=O)c3ccc(F)cc3)cc2C1=O,inactive
6,Nc1c2c(nc3ccccc13)CCN(Cc1ccccc1)C2,inactive
7,O=C(NCc1ccco1)C1CCCN(S(=O)(=O)c2cccc3nonc23)C1 (centres undefined),inactive
8,O=C(O)C(c1ccccc1)C(c1ccccc1)c1ccccc1 (centres undefined),inactive
9,O=C(Nc1ncccc1O)c1ccc(OCC2CCCO2)cc1 (centres undefined),inactive
10,N#CCSc1nc2c(c(=O)n1Cc1ccco1)C1(CCCC1)Cc1ccccc1-2,inactive
11,O=C(Nc1cccc2nsnc12)c1ccc(-c2cccc(Cl)c2)o1,inactive
12,Cc1ccc(Cc2cnc(N)s2)o1,inactive
13,O=C(CC1Nc2ccccc2OC1=O)Nc1ccc(Cl)cc1 (centres undefined),inactive
14,CCCc1oc(C(=O)O)cc1CN,inactive
15,O=C(Nc1ccc2oc(-c3cccnc3)nc2c1)c1ccc2c(c1)OCCO2,inactive
16,CCSCCNC(=O)c1cncc(Br)c1,inactive
17,Cc1c(/C=C/c2nc3ccccc3c(=O)n2-c2ccccn2)c2ccccc2n1C,inactive
18,O=C(COC(=O)c1cc(-c2cccs2)nc2ccccc12)NCc1ccco1,inactive
19,O=C(CCCN1C(=O)NC2(CCCC2)C1=O)Nc1ccc(F)cc1,inactive
20,O=C1CS/C(=N\N=C\c2ccco2)N1c1ccccc1,inactive
21,Cc1ccc2c(c1)C(N1CCCC1=O)CC(c1ccco1)N2 (centres undefined),inactive
22,O=C(Nc1cccc2ccccc12)NC1CC1,inactive
23,Cc1cnc(C)c(N2CCN(C(=O)[C@H]3CC[C@@H](N)C3)CC2)n1,inactive
24,CCOc1cc2c(C#N)c(N3CCNCC3)nc(N)c2c(N)n1,inactive

row,Compound,"activity change, negative = inhibition"
1,FC(F)(F)c1cc(Cl)c2nnc(C(F)(F)Cl)n2c1,inactive
2,O=C(O)COCC(=O)NCc1ccco1,inactive
3,O=C(Cc1cccs1)Nc1nnc(Cc2ccccc2)s1,inactive
4,Cc1noc(CN(C)C(=O)c2cc(-c3ccco3)nc3c(C)c(Cl)ccc23)n1,inactive
5,O=C(CCn1cncn1)N1CCC(n2cc(-c3ccccn3)nn2)CC1,inactive
6,C[C@H](CO)N1C[C@H](C)[C@@H](CN(C)C(=O)C2CCCCC2)OCCCC[C@H](C)Oc2ccc(NS(=O)(=O)c3ccccc3)cc2C1=O,inactive
7,Cc1noc(C)c1S(=O)(=O)Nc1ccc2c(c1)C(=O)N([C@H](C)CO)C[C@H](C)[C@@H](CN(C)CC1CCCCC1)OCCCC[C@H](C)O2,inactive
8,c1coc(-c2cn3ccc4ccccc4c3n2)c1,inactive
9,COc1ccc(CNC(=O)c2nc(Nc3ccc(C)cc3)c3ccccc3n2)cc1,inactive
10,CC(C)=CCC(C#N)(CC=C(C)C)C(=O)O,inactive
11,O=C(COC(=O)CCC(=O)c1cccs1)NCc1ccco1,inactive
12,O=C(NCCc1ccco1)c1ccc(OCc2cn3ccccc3n2)cc1,inactive
13,CCOc1ccc(-n2c3nc4ccccc4nc3c3c(=O)n(Cc4ccco4)cnc32)cc1,inactive
14,O=C(O)c1ccccc1SC1CC(=O)N(Cc2ccccc2)C1=O (centres undefined),inactive
15,CC1(C)Cc2ccccc2-c2nc(-c3ccccc3)oc(=O)c21,inactive
16,C[C@H](CO)N1C[C@H](C)[C@@H](CN(C)CC2CCCCC2)OCCCC[C@H](C)Oc2ccc(NS(=O)(=O)c3ccc(Cl)cc3)cc2C1=O,inactive
17,O=C(O)CCc1ccc(-c2cccs2)n1NC(=O)c1ccco1,inactive
18,O=C(COC(=O)c1cc(-c2ccco2)nc2ccccc12)NCc1ccccc1,inactive
19,O=C1c2ccccc2S(=O)(=O)N1Cc1cccc(S(=O)(=O)N2CCOCC2)c1,inactive
20,Nc1ccccc1Sc1nccc(C(F)(F)F)n1,inactive
21,O=C(Nc1nc(-c2ccco2)c(-c2ccco2)s1)c1ccc(F)cc1F,inactive
22,CN(Cc1ccco1)S(=O)(=O)c1nnc(NC(=O)c2ccccc2)s1,inactive
23,CC(CCc1ccco1)N(C)S(=O)(=O)c1ccc2[nH]c(=O)ccc2c1 (centres undefined),inactive
24,CCc1nc(OCc2ccco2)c2sc3nc4c(cc3c2n1)COC(C)(C)C4,inactive
